Data from patent US10702519B2, “Use of methoxatin, derivative and/or salt thereof in Sjogren's syndrome and pharmaceutical composition” (NANJING SHUPENG LIFESCIENCE CO., LTD, priority 2016, dated 2020).
“Also recorded” adds a separate entry of the source. Marks after values point to notes of the source that are not given here.

Key:
NOD mice = experiment: Saliva flow detection (pilocarpine-stimulated) in NOD mouse model of Sjogren's syndrome; format: in vivo; conditions: for salivary flow compared with the control group: P<0.05; for SFR (salivary flow): NOD mice, PQQ 1 mg/kg/day, active vitamin D 0.1 μg/kg/day; for salivary secretion function of NOD mice: summary statement
Text: Model: NOD mouse model. NOD (Non-obese Diabetes) mice are a genetically deficient animal model of spontaneous diabetes. The female mice develop diabetes from 14 weeks and the incidence can reach as high as 80% by 30 weeks. NOD mice are also an animal model of Sjogren's syndrome. Mice develop inflammatory cell infiltration in the submandibular gland from 12 weeks of age, with increased expression of multiple inflammatory factors, and reduced salivary secretion and increased salivary salt concentration from 16 to 20 weeks of age.
Experimental grouping: 8-week-old female NOD mice were purchased from Shanghai SLE Experimental Animal Corporation and divided into control group, active vitamin d group, PQQ group and PQQ combined with active vitamin D group. There were four different treatment groups, 10 in each group. Saliva flow rates were measured at 12, 24, and 36 weeks of age. The amounts of PQQ and active vitamin D were 1 mg/kg body weight per day and 0.1 μg/kg body weight per day, respectively.
a. Intraperitoneal injection of 1.2% avertin (Chinese name: tribromoethanol), injection dose: 0.2 ml/10 g body weight, formula: (1) […] avertin dissolved in 0.25 ml t-amyl alcohol, shaking for 12 hours to completely dissolve; (2) Add 19.75 ml of 0.9% NaCl solution to obtain 1.2% avertin. Mice were anesthetized gently.
b. Subcutaneous pilocarpine injection in the neck, injection dose: 0.5 mg/kg=0.01 mg/20 g body weight, mother liquor concentration: 0.5 g/10 ml physiological saline=50 mg/ml=0.05×103 mg/ml, solution concentration: the mother liquor was diluted 1000 times, ie, 0.05 mg/ml, to stimulate saliva secretion.
c. Began to collect saliva after 5 minutes, that is, cotton ball with about 8 mg dry weight is made from sterile cotton ball, which is then put into a 1.5 mL EP tube to determine the dry weight. When measuring saliva secretion, the cotton ball is put into the mouse cheek and then taken into the EP tube after 10 min. The wet weight is determined on the electronic balance. Saliva secretion=wet weight of cotton balls−dry weight of cotton balls.

[1] = chemical stability of o-quinone structure; cited from earlier work
[2] = rat, cited from earlier work
[3] = tested on: mouse submandibular gland tissue; experiment: Mouse submandibular gland tissue slice detection (hematoxylin-eosin), lymphocytic infiltration; format: in vivo; conditions: NOD mice, 36 weeks age, FIG. 3
Text: 36 weeks age of mouse submandibular gland tissue was isolated, embedded in paraffin and sliced, stained with hematoxylin-eosin and photographed with an inverted microscope.

NF-κB = experiment: Western Blot detection of NF-κB activation in mouse submandibular gland tissue; format: in vivo; conditions: for phosphorylation level of P65: compared with the control group
Protocol: Detection of NF-κB Activation in Submandibular Gland Tissue of Mouse Submandibular Gland by Western Blot
Take the same amount of total protein for each sample, add 4×SDS loading buffer according to the ratio of protein sample: 4×SDS at 3:1, mix well, boil at 95° C. for 5 min, and prepare 10% separation gel and 5% concentration gel. Perform SDS-PAGE electrophoresis, transfer the membrane, and block the PVDF membrane with 5% solution of skim milk in TBST for 1 hour at room temperature or overnight at 4° C. Dilute antibody with blocking solution, incubate at room temperature for 2 h or 4° C. overnight. Wash membrane, incubate with secondary antibody, and then wash the membrane again. After the equal volume of liquids A and B in the luminescence kit were mixed in a vessel, the mixture was uniformly added dropwise to the PVDF membrane, and the reaction was carried out in the dark for 3-5 minutes.
At the 36th week of treatment, the mouse submandibular glands were taken and Western Blot was used to detect the activation of NF-κB. […] P65 is the protein subunit of NF-κB, and its phosphorylation level directly reflects the activity of NF-κB. In addition, IκB binds to NF-κB to prevent its entry into the nucleus and exerts its activity. Once IκB is phosphorylated, it is degraded and releases NF-κB.

[4] = tested on: MDA in submandibular gland tissue of mice; experiment: Detection of MDA content in submandibular gland tissue; format: in vivo, mouse; conditions: for content of MDA compared with the control group: 36 weeks, P<0.05; for MDA (Mean ± SD): submandibular gland tissue of mice at 36 weeks of age
Protocol: Detection of MDA content: The submandibular gland tissue in the submandibular glands of mice were harvested and homogenized with icy physiological saline. The protein content was quantified by BCA. Take 1 ml homogenate, add 1 ml 30% trichloroacetic acid and 1 ml 0.67% TBA in turn, bath in boiling water for 30 min and cool to room temperature. After centrifugation at 3000 g for 10 min, the absorbance (A) of the supernatant was measured at 535 nm, and the MDA content was calculated from the standard curve. The result was expressed in nmol/mg tissue.

[5] = tested on: SOD in submandibular gland tissue of mice; experiment: Detection of SOD content in submandibular gland tissue; format: in vivo, mouse; conditions: for content of SOD compared with the control group: 36 weeks; for SOD (Mean ± SD): submandibular gland tissue of mice at 36 weeks of age
Protocol: Detection of SOD content: The submandibular gland tissue of mice were used to prepare tissue homogenates with icy physiological saline, and the protein content was quantified by BCA method. Refer to the kit operation instructions. Take 0.2 ml of the sample and mix it with 1.3 ml of test solution. Incubate at 37° C. for 40 min. Add 2 ml of chromogenic agent. Placed at room temperature for 10 min. Determine OD at 550 nm. The results are expressed in terms of U/mg protein, which states that the corresponding SOD amount per milligram of protein in a 1 ml reaction solution with a SOD inhibition rate of 50% is an SOD activity unit.

[6] = tested on: inflammatory factors in mouse submandibular glands tissue; experiment: Realtime quantitative PCR of inflammatory factors in mouse submandibular gland tissue; format: in vivo; conditions: for expression of IL-1β / expression of IL-6 / expression of IL-10 / expression of TNF-α: submandibular glands tissue, 36 weeks, p<0.05
Protocol: Take the mouse submandibular gland tissue and extract RNA using Trizol. Superscript III was used for reverse transcription. Reaction was performed at 42° C. for 30 minutes. Oligo dT and Random Hexamer were used as primers for reverse transcription. Realtime quantitative PCR reaction system: 2×PCR premix 10 μl, Primers 0.8 μl, cDNA 1 μl, add balance of H2O to 20 μl; Reaction conditions: 95° C. 10 min, 95° C. 15 s, 60° C. 60 s, Read plate for 50 cycles; Melting curve Analysis: Temperature 55° C.-95° C., read once per minute. Set up 3 replicates for each sample.

[7] = submandibular glands, 36th week

Structure (SMILES)	salivary flow compared with the control group (NOD mice; 36th week)	SFR (salivary flow) (NOD mice; 12 W of age)	SFR (salivary flow) (NOD mice; 24 W of age)	SFR (salivary flow) (NOD mice; 36 W of age)	salivary flow compared with the control group (NOD mice; age of 24 weeks)	salivary secretion function of NOD mice (NOD mice)	phosphorylation level of P65 (NF-κB; [7])	content of MDA compared with the control group [4]	MDA (Mean ± SD) [4] [nmol/mg protein]	content of SOD compared with the control group [5]	SOD (Mean ± SD) [5] [NU/mg protein]	expression of IL-1β [6]	expression of IL-6 [6]	expression of IL-10 [6]	expression of TNF-α [6]	other results
O=C(O)c1cc(C(=O)O)c2c(n1)C(=O)C(=O)c1cc(C(=O)O)[nH]c1-2 [PQQ, Pyrroloquinoline quinone]	significantly higher	2.55 (n = 10) μl/g/10 min	3.21 (n = 6) μl/g/10 min	3.75* (n = 5) μl/g/10 min	no significant difference	significantly improve	significantly attenuated	significantly lower	4.61 ± 0.76	significantly higher	198.21 ± 21.33	significantly inhibited	significantly reduce; also recorded: significantly inhibited	significantly inhibited	significantly inhibited	redox cycles it can participate in [1]: 20,000; adverse reactions ([2]; 100 mg/kg body weight per day for 14 consecutive days): no adverse reactions were found; LD50 [2]: 1000-2000 mg/kg body weight; area of lymphocyte infiltration in submandibular gland [3]: significantly inhibit; also recorded: significantly reduced; activity of NF-kappaB signaling pathway (NF-κB; submandibular gland tissues of NOD mice, summary statement): significantly reduce; phosphorylation level of IκB (NF-κB; [7]): significantly attenuated; oxidative stress levels in submandibular gland tissues of NOD mice ([4]; summary statement): significantly inhibit; expression of Il-1 ([6]; summary and FIG. 2 legend): significantly reduce; expression of gamma interferon ([6]; summary and FIG. 2 legend): significantly reduce
C=C1/C(=C\C=C2/CCC[C@]3(C)[C@@H]([C@H](C)CCCC(C)(C)O)CC[C@@H]23)C[C@@H](O)C[C@@H]1O [active vitamin D, 1,25-Dihydroxyvitamin D3, reference compound]	no statistical difference	2.74 (n = 10) μl/g/10 min	2.82 (n = 5) μl/g/10 min	3.22 (n = 4) μl/g/10 min	no significant difference	no effect	no significant change	no significant difference	9.48 ± 2.12	no significant difference	102.45 ± 14.22	did not detect the effect	did not detect the effect	did not detect the effect	did not detect the effect	
